Where a SMILES comes first, the peptide text is derived from it. [ ]: non-standard residue; d: D form. ξ: configuration not given here. ξPhe(3-F) = NC(Cc1cccc(F)c1)C(=O)O; ξPhe(4-F) = NC(Cc1ccc(F)cc1)C(=O)O

The source of these data is patent US10793594B2, “Antimicrobial compounds and/or modulators of microbial infections and methods of using the same” (Indiana University Research and Technology Corporation, priority 2017, dated 2020).

Experiment [1] deals with Pseudomonas aeruginosa (PA14). Description: Pa biofilm formation/growth inhibition assay (crystal violet). The class given is cell-based. Particulars: phenylalanine deficient biofilm assay.
Experiment [2] has as its system Cryptococcus neoformans (Cn). Description: CO-ADD antimicrobial screening, growth of Cryptococcus neoformans (MIC). The class given is cell-based. Here is the method: Briefly, CO-ADD, The Community for Open Antimicrobial Drug Discovery, is a global open-access screening initiative launched in February 2015 to uncover significant and rich chemical diversity held outside of corporate screening collections. For screening, about 1 mg of pure compound is required and the compounds must be soluble in DMSO. In the preliminary screening, compounds are tested against some ESKAPE pathogens, including, but are not limited to, E. coli, K. pneumoniae, A. baumannii, P. aeruginosa, S. aureus (MRSA), as well as the fungi, for example, C. neoformans and C. albicans. The screen uses a single concentration (e.g., […]) and provides initial activity data to select compounds for further more detailed screening. Active compounds from the preliminary screening are tested in dose response antimicrobial assays to confirm their activity. […]
The minimum inhibitory concentration (MIC) was determined following the CLSI (Clinical Laboratory and Standards Institute) guidelines, identifying the lowest concentration at which full inhibition of the bacteria or fungi has been detected. […]
Fungi strains were cultured for 3 days on Yeast Extract-Peptone Dextrose (YPD) agar at 30° C. A yeast suspension of 1×106 to 5×10^6 CFU/mL (as determined by OD530) was prepared from five colonies. […]

Experiment [3] has as its system Ca and/or Cn (Candida albicans, Cryptococcus neoformans). Briefly: CO-ADD preliminary screen and hit confirmation against fungi. Particulars: two replicated lots, mixtures of enantiomers or diastereomers; for preliminary activity against Ca and/or Cn (preliminary screen): single concentration. The class given is cell-based. Here is the method:
(§1) Briefly, CO-ADD, The Community for Open Antimicrobial Drug Discovery, is a global open-access screening initiative launched in February 2015 to uncover significant and rich chemical diversity held outside of corporate screening collections. For screening, about 1 mg of pure compound is required and the compounds must be soluble in DMSO. In the preliminary screening, compounds are tested against some ESKAPE pathogens, including, but are not limited to, E. coli, K. pneumoniae, A. baumannii, P. aeruginosa, S. aureus (MRSA), as well as the fungi, for example, C. neoformans and C. albicans. The screen uses a single concentration (e.g., […]) and provides initial activity data to select compounds for further more detailed screening. Active compounds from the preliminary screening are tested in dose response antimicrobial assays to confirm their activity. Active compounds are screened for adverse effects, such as cytotoxicity, critical micelle concentration and membrane depolarization, as well as for their purity. Then, the hit compound is tested against a broader panel of microbes with multidrug-resistant (MDR) and pan-resistant bacterial strains and clinical isolates, with different co-factors (such as serum or lung surfactant). The hit validation includes initial ADMET screening, including haemolysis, microsome and plasma stability and protein binding. See CO-ADD website for more details.
(§2) The minimum inhibitory concentration (MIC) was determined following the CLSI (Clinical Laboratory and Standards Institute) guidelines, identifying the lowest concentration at which full inhibition of the bacteria or fungi has been detected. […] Note that MIC values are discrete values based on the concentration in a specific well.
(§3) Selection of Hits: Samples with MIC (≤16 μg/mL or ≤10 μM) are declared as a hit. For toxicity (cytotoxicity and haemolytic activity) all sample/s with CC50/HC10≤maximum tested concentration are considered active, or toxic. Since the maximum tested concentration is the same for toxicity and antimicrobial activity, no therapeutic index (MIC/CC50 or MIC/HC10) can be calculated and all sample/s with toxic activity are flagged.
Growth inhibition of C. albicans was determined measuring absorbance at 530 nm (OD530), while the growth inhibition of C. neoformans was determined measuring the difference in absorbance between 600 and 570 nm (OD600-570), after the addition of resazurin (0.001% final concentration) and incubation at 35° C. for additional 2 h. The absorbance was measured using a Biotek Synergy HTX plate reader. The percentage of growth inhibition was calculated for each well, using the negative control (media only) and positive control (bacteria without inhibitors) on the same plate as references. Percentage growth inhibition of an individual sample is calculated based on Negative controls (media only) and Positive Controls (bacterial/fungal media without inhibitors). Negative inhibition values indicate that the growth rate (or OD600) is higher compared to the Negative Control (Bacteria/fungi only, set to 0% inhibition). The growth rates for all bacteria and fungi has a variation of −/+10%, which is within the reported normal distribution of bacterial/fungal growth.
In addition, two values are used as quality controls for individual plates: Z′-Factor [1−(3*(sd(NegCtrl)+sd(PosCtrl))/(average(PosCtrl)−average(NegCtrl)))] and Standard Antibiotic controls at different concentrations (>MIC and <MIC). […] Active samples are defined as those with inhibition values equal to or above 80% and abs(Z-Score) above 12.51 for either replicate (n=2 on different plates) were classed as active. Partially active compounds are defined as those with inhibition values between 50.9%-79.9% or abs(Z-Score) below 12.51.
Samples were prepared in DMSO and water to a final testing concentration of 32 μg/mL or 20 μM and serially diluted 1:2 fold for 8 times. […]

Another experiment concerns Acinetobacter baumannii. Description: CO-ADD preliminary screen and hit confirmation against Acinetobacter baumannii. The format is cell-based. Particulars: for hit confirmation against Acinetobacter baumannii: hit confirmation (HC), separated diastereomers; for activity against Acinetobacter baumannii in the preliminary screen: preliminary screen (PS). Here is the method:
as §1, §2, §3
Referring now to FIGS. 52 and 53, inhibition of bacterial growth was determined measuring absorbance at 600 nm (OD600), using a Tecan M1000 Pro monochromator plate reader. The percentage of growth inhibition was calculated for each well, using the negative control (media only) and positive control (bacteria without inhibitors) on the same plate as references.
Samples were prepared in DMSO and water to a final testing concentration of 32 μg/mL or 20 μM and serially diluted 1:2 fold for 8 times. Each sample concentration was prepared in 384-well plates, non-binding surface plate (NBS; Corning 3640) for each bacterial/fungal strain or Tissue-culture treated (TC-treated; Corning 3712/3764) black for mammalian cell types, all in duplicate (n=2), and keeping the final DMSO concentration to a maximum of 0.5% DMSO. All the sample preparation was done using liquid handling robots.
For the antibacterial screening, all bacteria were cultured in Cation-adjusted Mueller Hinton broth (CAMHB) at 37° C. overnight. A sample of each culture was then diluted 40-fold in fresh broth and incubated at 37° C. for 1.5-3 h. The resultant mid-log phase cultures were diluted (CFU/mL measured by OD600), then added to each well of the compound containing plates, giving a cell density of 5×10^5 CFU/mL and a total volume of 50 μL. All the plates were covered and incubated at 37° C. for 18 h without shaking.

For a further experiment, the system named is bacterial biofilms. Particulars: cited from earlier work.

For `C[C@H](N)C(=O)NC(Cc1ccc(F)cc1)C(=O)O` (stereo partly drawn) [compound 25, (2R,2S)-[2-((S)-2-aminopropanamido)]-3-(4-fluorophenyl)propanoic acid], the “ability to inhibit the growth of P. aeruginosa (Pa) in a biofilm assay” value in experiment [1] is “potent ability to inhibit the growth”. Besides, the “inhibitory effects on the growth of Cryptococcus neoformans (Cn)” value in experiment [2] is reported as “exhibited inhibitory effects”. Also, the “activity against Ca and/or Cn confirmed (hit confirmation)” value (from here on “activity against Ca and/or Cn confirmed”) in experiment [3] was “confirmed”.

With `CC(C)C[C@H](N)C(=O)NC(Cc1cccc(F)c1)C(=O)O` (stereo partly drawn) [compound 46, (2R,2S)-[2-((S)-2-amino-4-methylpentanamido)]-3-(3-fluorophenyl)propanoic acid], in experiment [3], the “preliminary activity against Ca and/or Cn (preliminary screen)” value (from here on “preliminary activity … (preliminary screen)”) was “preliminary activity”.

Turning to `O=C(O)C(Cc1cccc(F)c1)NC(=O)[C@@H]1CCCN1` (stereo partly drawn) [compound 48, (2R,2S)-[3-(3-fluorophenyl)]-2-((S)-pyrrolidine-2-carboxamido)propanoic acid] (H-Pro-[ξPhe(3-F)]-OH), the “preliminary activity … (preliminary screen)” value in experiment [3] was “preliminary activity”.

For `C[C@H](N)C(=O)NC(Cc1ccccc1F)C(=O)O` (stereo partly drawn) [compound 36, (2R,2S)-[2-((S)-2-aminopropanamido)-3-(2-fluorophenyl)]propanoic acid], in experiment [1], the “ability to inhibit the growth of P. aeruginosa (Pa) in a biofilm assay” value was “potent ability to inhibit the growth”. Besides, the “inhibitory effects on the growth of Cryptococcus neoformans (Cn)” value in experiment [2] is “exhibited inhibitory effects”. For the same compound, in experiment [3], the “activity against Ca and/or Cn confirmed” value is reported as “confirmed”.

Turning to `NCC(=O)NC(Cc1cccc(F)c1)C(=O)O` [compound 43, (2R,2S)-[2-(2-aminoacetamido)]-3-(3-fluorophenyl)propanoic acid] (H-Gly-[ξPhe(3-F)]-OH), the “preliminary activity … (preliminary screen)” value in experiment [3] was “preliminary activity”.

With `N[C@@H](Cc1ccc(O)cc1)C(=O)N[C@@H](Cc1cccc(F)c1)C(=O)O` (single isomer, unassigned) [45a], in the experiment on Acinetobacter baumannii, the “hit confirmation against Acinetobacter baumannii” value is reported as “hit confirmation was observed” and the “activity against Acinetobacter baumannii in the preliminary screen” value (from here on “activity against Acinetobacter baumannii”) was “not seen”.

As for `C[C@@H](O)[C@H](N)C(=O)NC(Cc1ccc(F)cc1)C(=O)O` (stereo partly drawn) [compound 108, (2R,2S)-[((2S,3R)-2-amino-3-hydroxybutanamido)]-3-(4-fluorophenyl)propanoic acid] (H-Thr-[ξPhe(4-F)]-OH), the “ability to inhibit the growth of P. aeruginosa (Pa) in a biofilm assay” value in experiment [1] was “had shown activity”.

Turning to `C[C@H](N)C(=O)NC(Cc1cccc(F)c1)C(=O)O` (stereo partly drawn) [compound 44, (2R,2S)-[2-((S)-2-aminopropanamido)]-3-(3-fluorophenyl)propanoic acid], the “activity against Ca and/or Cn confirmed” value in experiment [3] is “confirmed”.

Regarding `C[C@H](N)C(=O)N[C@@H](Cc1cccc(F)c1)C(=O)O` (single isomer, unassigned) [44a], in the experiment with Acinetobacter baumannii, the “hit confirmation against Acinetobacter baumannii” value is on record as “hit confirmation was observed” and the “activity against Acinetobacter baumannii” value is recorded as “not seen”.

As to `N[C@H](Cc1ccc(O)cc1)C(=O)O` [D-Tyrosine], the “trigger for the disassembly of bacterial biofilms” value in the experiment on bacterial biofilms is “particularly active”.

Turning to `C[C@H](N)C(=O)N[C@@H](Cc1ccc(F)cc1)C(=O)O` (single isomer, unassigned) [25a], in the experiment on Acinetobacter baumannii, the “hit confirmation against Acinetobacter baumannii” value is “hit confirmation was observed” and the “activity against Acinetobacter baumannii” value is reported as “not seen”.

Consider `NCC(=O)NC(Cc1ccc(F)cc1)C(=O)O` [compound 30, (2R,2S)-[2-(2-aminoacetamido)]-3-(4-fluorophenyl)propanoic acid] (H-Gly-[ξPhe(4-F)]-OH), for which the “preliminary activity … (preliminary screen)” value in experiment [3] is “preliminary activity”.

For the compound `N[C@H](C(=O)NC(Cc1cccc(F)c1)C(=O)O)c1ccccc1` (stereo partly drawn) [compound 52, (2R,2S)-[2-((S)-2-amino-2-phenylacetamido)]-3-(3-fluorophenyl)propanoic acid], the “preliminary activity … (preliminary screen)” value in experiment [3] is listed as “preliminary activity”.

On to `N[C@@H](Cc1ccc(O)cc1)C(=O)NC(Cc1cccc(F)c1)C(=O)O` (stereo partly drawn) [compound 45, (2R,2S)-[2-((S)-2-amino-3-(4-hydroxyphenyl)propanamido)]-3-(3-fluorophenyl)propanoic acid], for which the “preliminary activity … (preliminary screen)” value in experiment [3] is reported as “preliminary activity”.
